Where “and” joins values, the source holds several entries; their conditions need not be identical. Identical values can stand only once. Toxic doses and inconclusive results are not listed.
Test system: P388 leukemia ip, CD2F1 mice, survival T/C
Experiment: NCI In Vivo Anticancer Drug Screen. Data for tumor model P388 Leukemia (intraperitoneal) in CD2F1 (CDF1) mice
Details: endpoint: median survival time, higher = longer survival
Procedure, shortened: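 Mice carrying the transplanted tumor received test compound or vehicle. Survival was recorded in each group, and the value is the treated-group measurement divided by that of the vehicle-treated control group.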

[1] = dose: 60.0 mg/kg/injection, schedule: Q01DX005 (ip), vehicle: saline
[2] = dose: 120.0 mg/kg/injection, schedule: Q01DX005 (ip), vehicle: saline
[3] = dose: 240.0 mg/kg/injection, schedule: Q01DX005 (ip), vehicle: saline
[4] = dose: 50.0 mg/kg/injection, schedule: Q01DX005 (ip), vehicle: saline with Tween-80
[5] = dose: 100.0 mg/kg/injection, schedule: Q01DX005 (ip), vehicle: saline with Tween-80
[6] = dose: 200.0 mg/kg/injection, schedule: Q01DX005 (ip), vehicle: saline with Tween-80
[7] = dose: 50.0 mg/kg/injection, schedule: Q01DX005 (ip), vehicle: Klucel (hydroxypropylcellulose) (HPC)
[8] = dose: 100.0 mg/kg/injection, schedule: Q01DX005 (ip), vehicle: Klucel (hydroxypropylcellulose) (HPC)
[9] = dose: 200.0 mg/kg/injection, schedule: Q01DX005 (ip), vehicle: Klucel (hydroxypropylcellulose) (HPC)
[10] = dose: 60.0 mg/kg/injection, schedule: Q01DX005 (ip), vehicle: saline with Tween-80
[11] = dose: 120.0 mg/kg/injection, schedule: Q01DX005 (ip), vehicle: saline with Tween-80
[12] = dose: 240.0 mg/kg/injection, schedule: Q01DX005 (ip), vehicle: saline with Tween-80
[13] = dose: 50.0 mg/kg/injection, schedule: Q01DX009 (ip), vehicle: Klucel (hydroxypropylcellulose) (HPC)
[14] = dose: 100.0 mg/kg/injection, schedule: Q01DX009 (ip), vehicle: Klucel (hydroxypropylcellulose) (HPC)

With CN(/N=C/c1ccccc1)c1nnnn1-c1ccccc1 the T/C (dose: 50.0 mg/kg/injection, schedule: Q01DX005 (ip), vehicle: saline + Tween-80 + alcohol) was 103 % of control, the T/C (dose: 100.0 mg/kg/injection, schedule: Q01DX005 (ip), vehicle: saline + Tween-80 + alcohol) was 97 % of control and the T/C (dose: 200.0 mg/kg/injection, schedule: Q01DX005 (ip), vehicle: saline + Tween-80 + alcohol) was 89 % of control.

With CC(N)C(=O)NC(C(=O)NC1C(O)OC(CO)C(O)C1O)C(C)C (stereo unspecified) the T/C [1] was 99 % of control, the T/C [2] was 104 % of control and the T/C [3] was 97 % of control.

COc1ccc2nc3cc(Cl)ccc3c(NCCCC3CCCN4CCCCC34)c2c1 (stereo unspecified) was tested, and the T/C (dose: 7.5 mg/kg/injection, schedule: Q01DX005 (ip), vehicle: saline with Tween-80) was 108 % of control, the T/C (dose: 15.0 mg/kg/injection, schedule: Q01DX005 (ip), vehicle: saline with Tween-80) was 108 % of control and the T/C (dose: 30.0 mg/kg/injection, schedule: Q01DX005 (ip), vehicle: saline with Tween-80) was 111 % of control.

With CC(O)C(NC(=O)SCc1ccccc1)C(=O)O (stereo unspecified) the T/C [4] was 101 % of control, the T/C [5] was 90 % of control and the T/C [6] was 92 % of control.

In the case of CN(C)/[N+]([O-])=N/N1C(=O)c2ccccc2C1=O, the T/C [7] is reported as 101 % of control, the T/C [8] is reported as 105 % of control and the T/C [9] is reported as 101 % of control.

In the case of C=[CH][Pb]([CH]=C)([CH]=C)[O]C(C)=O, the T/C (dose: 1.25 mg/kg/injection, schedule: Q01DX009 (ip), vehicle: saline with Tween-80) is reported as 110 % of control and 111 % of control, the T/C (dose: 2.5 mg/kg/injection, schedule: Q01DX009 (ip), vehicle: saline with Tween-80) is reported as 160 % of control and the T/C (dose: 5.0 mg/kg/injection, schedule: Q01DX009 (ip), vehicle: saline with Tween-80) is reported as 151 % of control and 188 % of control.

CC(C)(C)OC(=O)n1cnc(CC(NC(=O)OCc2ccccc2)C(=O)O)c1 (stereo unspecified) was tested, and the T/C [4] was 105 % of control, the T/C [5] was 100 % of control and the T/C [6] was 106 % of control.

With Cc1ncc(Br)c(C(=O)N=C(N)N)n1 the T/C [7] was 95 % of control, the T/C [8] was 100 % of control and the T/C [9] was 94 % of control.

In the case of O=[n+]1c2c(n([O-])c3ccccc31)C(Br)CCCC2Br (stereo unspecified), the T/C [10] is reported as 100 % of control, the T/C [11] is reported as 95 % of control and the T/C [12] is reported as 89 % of control.

For O=C(CCN1CCOCC1)Nc1ccc(F)cc1F, the T/C [4] was 99 % of control, the T/C [5] was 94 % of control and the T/C [6] was 94 % of control.

CC(OC(=O)C1C2C=CC(C2)C1C(=O)O)c1cccnc1 (stereo unspecified) was tested, and the T/C [7] was 97 % of control, the T/C [8] was 100 % of control and the T/C [9] was 98 % of control.

For Cl/C(=N\Nc1ccccc1)c1ccccc1, the T/C (dose: 3.13 mg/kg/injection, schedule: Q01DX009 (ip), vehicle: Klucel (hydroxypropylcellulose) (HPC)) was 100 % of control, the T/C (dose: 6.25 mg/kg/injection, schedule: Q01DX009 (ip), vehicle: Klucel (hydroxypropylcellulose) (HPC)) was 106 % of control and the T/C (dose: 7.5 mg/kg/injection, schedule: Q01DX001 (ip), vehicle: saline sonified) was 109 % of control. The T/C (dose: 12.5 mg/kg/injection, schedule: Q01DX009 (ip), vehicle: Klucel (hydroxypropylcellulose) (HPC)) was 104 % of control, the T/C (dose: 15.0 mg/kg/injection, schedule: Q01DX001 (ip), vehicle: saline sonified) was 109 % of control and the T/C (dose: 30.0 mg/kg/injection, schedule: Q01DX001 (ip), vehicle: saline sonified) was 109 % of control.

With C(/C=C/c1cc2cc(C3=NCCN3)ccc2o1)=C\c1ccc(C2=NCCN2)cc1 the T/C (dose: 100.0 mg/kg/injection, schedule: Q04DX003 (ip), vehicle: saline) was 114 % of control, the T/C (dose: 200.0 mg/kg/injection, schedule: Q04DX003 (ip), vehicle: saline) was 119 % of control and the T/C (dose: 400.0 mg/kg/injection, schedule: Q04DX003 (ip), vehicle: saline) was 118 % of control.

CCNc1nncs1 was tested, and the T/C (dose: 25.0 mg/kg/injection, schedule: Q01DX009 (ip), vehicle: saline) was 113 % of control, the T/C (dose: 100.0 mg/kg/injection, schedule: Q01DX009 (ip), vehicle: saline) was 161 % of control and the T/C (dose: 125.0 mg/kg/injection, schedule: Q01DX009 (ip), vehicle: saline) was 162 % of control.

With OCCCNc1nc2cc(Cl)ccc2o1 the T/C [10] was 119 % of control, the T/C [11] was 103 % of control and the T/C [12] was 100 % of control.

In the case of CCCCC(Nc1nncs1)Nc1nncs1, the T/C [10] is reported as 90 % of control, the T/C [11] is reported as 102 % of control and the T/C [12] is reported as 96 % of control.

With COc1cc([N+](=O)[O-])ccc1Nc1c2ccccc2nc2ccccc12 the T/C [13] was 99 % of control, the T/C [14] was 98 % of control and the T/C (dose: 200.0 mg/kg/injection, schedule: Q01DX009 (ip), vehicle: Klucel (hydroxypropylcellulose) (HPC)) was 90 % of control.

CCN(CC)C(=O)c1ccncc1C(=O)c1ccncc1 was tested, and the T/C [1] was 94 % of control, the T/C [2] was 100 % of control and the T/C [3] was 100 % of control.

With NNC(=O)c1cnn(-c2ccc(N(CCO)CCO)nn2)c1N the T/C (dose: 75.0 mg/kg/injection, schedule: Q01DX005 (ip), vehicle: other) was 107 % of control, the T/C (dose: 150.0 mg/kg/injection, schedule: Q01DX005 (ip), vehicle: other) was 107 % of control and the T/C (dose: 250.0 mg/kg/injection, schedule: Q01DX005 (oral), vehicle: water) was 104 % of control. For the same compound, the T/C (dose: 300.0 mg/kg/injection, schedule: Q01DX005 (ip), vehicle: other) was 93 % of control, the T/C (dose: 500.0 mg/kg/injection, schedule: Q01DX005 (oral), vehicle: water) was 110 % of control and the T/C (dose: 1000.0 mg/kg/injection, schedule: Q01DX005 (oral), vehicle: water) was 103 % of control.

With O=c1c2cc3c(cc2c2cc([N+](=O)[O-])cc4c2n1CC4)OCO3 the T/C (dose: 25.0 mg/kg/injection, schedule: Q01DX009 (ip), vehicle: other) was 98 % of control, the T/C (dose: 50.0 mg/kg/injection, schedule: Q01DX009 (ip), vehicle: other) was 92 % of control and the T/C (dose: 100.0 mg/kg/injection, schedule: Q01DX009 (ip), vehicle: other) was 90 % of control. The T/C (dose: 200.0 mg/kg/injection, schedule: Q01DX009 (ip), vehicle: other) was 100 % of control and the T/C (dose: 400.0 mg/kg/injection, schedule: Q01DX009 (ip), vehicle: other) was 104 % of control.

With C[CH2][Sn]([CH2]C)([O]c1cccccc1=O)[O]c1cccccc1=O the T/C (dose: 100.0 mg/kg/injection, schedule: Q01DX001 (ip), vehicle: Klucel (hydroxypropylcellulose) (HPC)) was 116 % of control, the T/C (dose: 200.0 mg/kg/injection, schedule: Q01DX001 (ip), vehicle: Klucel (hydroxypropylcellulose) (HPC)) was 110 % of control and the T/C (dose: 400.0 mg/kg/injection, schedule: Q01DX001 (ip), vehicle: Klucel (hydroxypropylcellulose) (HPC)) was 110 % of control.

With CC12C(=O)OC(=O)C1(C)C1CCC2O1 (stereo unspecified) the T/C (dose: 0.93 mg/kg/injection, schedule: Q01DX005 (ip), vehicle: saline with Tween-80) was 109 % of control and the T/C (dose: 1.87 mg/kg/injection, schedule: Q01DX005 (ip), vehicle: saline with Tween-80) was 102 % of control.

For CCOC(=O)c1c[nH]c2c(Cl)c(Cl)ccc2c1=O, the T/C [13] was 102 % of control and the T/C [14] was 95 % of control.

In the case of O=C(O)CCCCSCCCCCCSCCCCC(=O)O, the T/C [7] is reported as 106 % of control, the T/C [8] is reported as 105 % of control and the T/C [9] is reported as 107 % of control.

In the case of O=c1[nH]cnc2cc([N+](=O)[O-])ccc12, the T/C (dose: 12.0 mg/kg/injection, schedule: Q01DX005 (ip), vehicle: Klucel (hydroxypropylcellulose) (HPC)) is reported as 101 % of control, the T/C (dose: 25.0 mg/kg/injection, schedule: Q01DX005 (ip), vehicle: Klucel (hydroxypropylcellulose) (HPC)) is reported as 101 % of control and the T/C [7] is reported as 101 % of control and 106 % of control. The T/C [8] was 111 % of control.

For CNC(=S)OCCn1c([N+](=O)[O-])cnc1C, the T/C (dose: 100.0 mg/kg/injection, schedule: Q01DX001 (ip), vehicle: saline with Tween-80) was 92 % of control, the T/C (dose: 200.0 mg/kg/injection, schedule: Q01DX001 (ip), vehicle: saline with Tween-80) was 106 % of control and the T/C (dose: 400.0 mg/kg/injection, schedule: Q01DX001 (ip), vehicle: saline with Tween-80) was 105 % of control.

CCC1C(c2c[nH]c3ccccc23)N(C=O)CCC1(O)C(C)=O (stereo unspecified) was tested, and the T/C (dose: 4.38 mg/kg/injection, schedule: Q01DX005 (ip), vehicle: Klucel (hydroxypropylcellulose) (HPC)) was 99 % of control, the T/C (dose: 8.75 mg/kg/injection, schedule: Q01DX005 (ip), vehicle: Klucel (hydroxypropylcellulose) (HPC)) was 99 % of control and the T/C (dose: 17.5 mg/kg/injection, schedule: Q01DX005 (ip), vehicle: Klucel (hydroxypropylcellulose) (HPC)) was 96 % of control.

In the case of COc1ccc2c(c1)OC(C)(C)C(c1ccccc1)=C2c1ccc(O)c([N+](=O)[O-])c1, the T/C [4] is reported as 100 % of control, the T/C [5] is reported as 101 % of control and the T/C [6] is reported as 102 % of control.
